Patent US6248895A, “Benzofuroxan compound, method of preparation, pharmaceutical composition and method of treatment using the same” (Torrent Pharmaceuticals Ltd., priority 1998, dated 2001)

Columns and labels:
[1] = test system: thoracic aorta (albino rabbit, helical strips, endothelium removed); test: In vitro screening of NO donors: relaxation of endothelium-denuded rabbit thoracic aorta strips, before and after GTN-induced tolerance; type: cell-based; conditions: relative to GTN; for Mean Relative Potency After Tolerance: after tolerance induced by 440 μM GTN for 90 min
Protocol: a) In vitro Screening of NO Donors
The method adopted was a modified method of Nishikawa et al (1982). Albino rabbits of either sex were stunned and exsanguinated. Thoracic aorta was quickly removed and cut helically (at an angle of […]) into strips 4-5 mm wide and 25 to 30 mm long, after removal of adventitial connective tissue. The endothelium was rubbed off gently using a cotton swab soaked in Kreb's solution. Two strips were fixed vertically in organ baths containing 20 ml. Kreb's solution maintained at 37° C. and bubbled with oxygen. A resting tension of 4 g was applied and the preparation was allowed to equilibrate for 30 min. Each preparation was exposed to two primer doses of KCl (30 mM). After the contraction reached a maximum, the bath was drained off and replaced with fresh Kreb's solution. Half an hour later, cumulative dose response curve for the test compound was taken on one tissue (test) and for glyceryl trinitrate (GTN) in the other (standard). The dose range used was from 10^-9 M to 10^-3 M with a contact period of 4 min. for each dose.
Tolerance was induced in both the tissues by adding 440 μM of GTN for 90 minutes. During this period the bath solution was changed every 30 min. and 440 μM of GTN was replaced. Later both the tissues were washed thoroughly and the dose response curve (DRC) for both the test and the standard were repeated. The percentage relaxation with individual doses was calculated by taking the maximum relaxations to 10^-4 M papaverine as 100% relaxation. A graph was plotted by taking the percentage relaxation vs the log (M) concentration of the compounds.

[2] = test system: vasopressin induced T-wave elevation; test: Anti-anginal effect: suppression of vasopressin induced T-wave elevation in anesthetized guinea pigs; type: in vivo, guinea pig; conditions: for Selectivity Index A/B (C): ED20 for fall in B.P. (A) / ED50 for T-wave inhibition (B); for Dose required for 50% inhibition of T-wave (ED50) (B): i.v.
Excerpt: b) In vivo Pharmacological Screening
A modified method of Benedini et al (1995) was adopted for studying the anti-anginal effect of the chosen compounds. Guinea pigs of either sex, weighing approximately 400-600 g were used for this study. Animals were anesthetized with urethane (1.25 g/kg, i.p.) and jugular vein was cannulated for intravenous administration of drugs/vehicle. Mean arterial blood pressure (MABP) was monitored by a cannula inserted into the right carotid artery and connected to a pressure transducer. Standard limb lead II electrocardiogram was recorded continuously. All the recordings were carried out on a MacLab system (AD Instruments, UK).
The ability of the test compounds to suppress the vasopressin induced T-wave elevation was used as the model for studying the anti-anginal effects of the compounds. Guinea pigs were divided into two groups for the purpose of this study, i) control group (pretreated with the vehicle for the compound) and ii) drug treated group.
In this group of animals the solvent used for dissolving the test compound was administered intravenously in a volume of 1 ml/kg. The basal T-wave heights, heart rates and MABP and changes after vehicle administration were noted. Thirty seconds later 1 I.U./ml/kg of vasopressin was administered intravenously. The T-wave heights, heart rates and MABP and their changes after vasopressin administration were also noted. The T-wave elevation (after vasopressin administration), maximum rise in MABP, and changes in heart rate were calculated from the above data and expressed as mean±standard deviation.
The effects of the test compound in suppressing the T-wave elevation caused by vasopressin were evaluated with atleast three dose levels. Groups of 6 guinea pigs were used for each dose. The test compound was injected 30 seconds prior to vasopressin administration. Changes in MABP, heart rate and T-waves were recorded as described for the control group. The percentage inhibition of vasopressin induced T-wave elevation was calculated for each dose taking the T-wave height estimated in control group as 100%. From the dose vs percent inhibition relationship, the dose required for 50% inhibition (ED50) for the T-wave elevation was estimated.
In a separate group of animals the drop in MABP after administration of the test compound (dose range of 0.1-1000 μg/kg, i.v.) was studied. Atleast three animals were used for each dose. Care was taken so that the doses were given only after the MABP had stabilized from the effects of the previous dose. All doses were injected in a final volume of 1 ml/kg. […] From this graph the dose required to produce a 20% fall in MABP (ED20) was calculated. The specificity of the test compound was defined by the selectivity index, which was shown below: [formula]

MABP = test: Drop in mean arterial blood pressure (MABP) after i.v. administration; type: in vivo, guinea pig; conditions: 20% fall in MABP
Protocol: Guinea pigs of either sex, weighing approximately 400-600 g were used for this study. […] Standard limb lead II electrocardiogram was recorded continuously. All the recordings were carried out on a MacLab system (AD Instruments, UK).
Determination of the Ed20 Values for Drop in Mabp
Atleast three animals were used for each dose. […] All doses were injected in a final volume of 1 ml/kg. […] The specificity of the test compound was defined by the selectivity index, which was shown below: [formula]

[3] = conventional nitrates like GTN; cited from earlier work
[4] = 30 seconds prior to vasopressin 1 I.U./ml/kg

Compound	Mean Relative Potency After Tolerance [1]	Mean Relative Potency Before Tolerance [1]	Selectivity Index A/B (C) [2]	selectivity index as compared to GTN (in words) [2]	Dose required for 50% inhibition of T-wave (ED50) (B) [2, 4] [mg/kg]	Dose needed for 20% fall in B.P. (ED20) (A) (MABP) [mg/kg]	ED50 ([2]; Cavia porcellus, iv, 30 seconds prior to vasopressin 1 I.U./ml/kg, read-out: Dose required for 50% inhibition of T-wave (ED50) (B)) [mg/kg]	ED20 (MABP; Cavia porcellus, iv, read-out: Dose needed for 20% fall in B.P. (ED20) (A)) [mg/kg]	side effects as a manifestation of hypotensive effect [3]
5(6)-(2-nicotinamide ethyloxycarbonyl) benzofuroxan hydrochloride [Compound 1]	8.4	0.2	0.517	high selectivity index as compared to GTN	0.88642	0.45802	–	–	–
CC1(C)OCC(COC(=O)c2ccc3c(c2)no[n+]3[O-])O1 (racemic) [Compound 10, 5(6)-((±)-2,2-dimethyl-1,3-dioxolane-4-methyloxycarbonyl) benzofuroxan]	10.13	0.39	0.58	high selectivity index as compared to GTN	0.492	0.286	–	–	–
O=C(NCCOC(=O)c1ccc2c(c1)no[n+]2[O-])c1ccncc1 [Compound 2, 5(6)-(2-isonicotinamideethyloxycarbonyl)benzofuroxan]	6.94	0.06	–	–	–	–	–	–	–
O=C(OCCN1CCCC1=O)c1ccc2c(c1)no[n+]2[O-] [Compound 3, 5(6)-(2-pyrolidinone ethyloxycarbonyl) benzofuroxan]	25	0.11	0.152	–	0.67561	0.13952	–	–	–
CC(O)COC(=O)c1ccc2c(c1)no[n+]2[O-] (stereo not drawn) [Compound 4, 5(6)-(2-hydroxypropyloxycarbonyl) benzofuroxan]	11.22	0.28	–	–	–	–	–	–	–
O=C(OCCN1CCOCC1)c1ccc2c(c1)no[n+]2[O-] [Compound 5, 5(6)-(2-morpholinoethyloxycarbonyl)benzofuroxan]	4.12	0.18	–	–	–	–	–	–	–
COCCOC(=O)c1ccc2c(c1)no[n+]2[O-] [Compound 6, 5(6)-(2-methyloxyethyloxycarbonyl) benzofuroxan]	17.02	0.97	0.67	high selectivity index as compared to GTN	0.3379	0.22634	–	–	–
O=C(OCC(O)CO)c1ccc2c(c1)no[n+]2[O-] (stereo not drawn) [Compound 7, 5(6)-(2,3-dihydroxypropyloxycarbonyl) benzofuroxan]	3.49	0.17	–	–	–	–	–	–	–
CCOCCOC(=O)c1ccc2c(c1)no[n+]2[O-] [Compound 8, 5(6)-(2-ethoxyethyloxycarbonyl) benzofuroxan]	11.9	0.2	–	–	–	–	–	–	–
O=C(OCc1cccnc1)c1ccc2c(c1)no[n+]2[O-] [Compound 9, 5(6)-(3-pyridinemethoxycarbonyl) benzofuroxan]	8.05	0.53	0.61	high selectivity index as compared to GTN	0.37285	0.22716	–	–	–
O=C(OC1COC2C(O[N+](=O)[O-])COC12)c1ccc2c(c1)no[n+]2[O-] (stereo not drawn) [Compound 11, 5(6)-(isosorbide mononitrateoxy carbonyl) benzofuroxan]	7	0.25	–	–	–	–	–	–	–
O=[N+]([O-])OCC(CO[N+](=O)[O-])O[N+](=O)[O-] [GTN, glyceryl trinitrate, reference compound]	–	–	~0.017	–	–	–	0.474	0.00822	tachycardia, retrosternal discomfort, palpitations, collapse, syncope and postural hypotension
